Laboratory results taken from PMC8659031, “Substituted Aryl Benzylamines as Potent and Selective Inhibitors of 17β-Hydroxysteroid Dehydrogenase Type 3” (Molecules, 2021).
Entries after “also recorded” stand apart in the source; their conditions may differ. Where two headings read alike, the source gives them in different places.

Tests used:
17β-HSD3 = molecular target: T1, 17β-HSD3 (Homo sapiens, UniProt P37058); assay: Assay for 17β-HSD3 activity (TLC assay) in 293-EBNA cells stably transfected with 17β-HSD3; assay type: cell-based; settings: for inhibition at 10 µM: 293-EBNA, mean of at least two measurements, typically SD ±5%
T1 construct: expressed in transfected cells; host or cells: human 293-EBNA cells, stably transfected
T1 sequence (P37058 1-310): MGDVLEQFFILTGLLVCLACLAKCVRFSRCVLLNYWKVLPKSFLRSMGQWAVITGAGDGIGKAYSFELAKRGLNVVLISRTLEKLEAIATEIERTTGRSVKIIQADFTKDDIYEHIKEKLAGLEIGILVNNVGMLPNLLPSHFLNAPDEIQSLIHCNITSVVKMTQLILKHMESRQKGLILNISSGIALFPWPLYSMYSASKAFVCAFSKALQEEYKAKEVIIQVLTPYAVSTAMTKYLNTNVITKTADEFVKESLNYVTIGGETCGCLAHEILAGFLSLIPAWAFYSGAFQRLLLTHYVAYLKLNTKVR
Method: Human 293-EBNA cells stably transfected with 17β-HSD3 were plated at 50,000 cells/well in 24 well plates in complete growth medium. After 48 h 2–3 nM [^3H]-androstenedione in assay medium (500 mL DMEM medium with 5 mL 100 × L-glutamine and 5 mL 7.5% sodium bicarbonate solution) was added with or without test compound at 1.5 mL/well (triplicate), and the cells incubated at 37 °C. Two hours later 1 mL medium was removed from each well and placed in a 125 × 16 mm glass test tube containing 25 µL of recovery solution (5000 dpm ^14C-testosterone and 25 µg unlabelled testosterone […], and the tubes vortexed at high speed for 2 × 30 s. After the samples had settled into two phases, they were snap-frozen in a dry ice/methanol bath. The upper organic phase was decanted into 75 × 12 mm tubes and evaporated to dryness under an airstream using a sample concentrator (TECHNE) at 40 °C. The samples were resuspended in ether (8 drops, then a further 3), spotted onto ca 60 F254 20 cm × 20 cm TLC plates and separated using a 4:1 v/v dichloromethane: ethyl acetate mobile phase. After drying the plates, the major spots were marked under a UV lamp, cut out and placed in individual scintillation vials containing 0.5 mL methanol. These were then shaken lightly and allowed to stand for 15 min before adding 10 mL of EcoScintA (scintillation fluid) to each tube along with 0.5 mL assay medium and counted in a scintillation spectrometer (Beckman, High Wycombe, Bucks, UK), using a program for duel [^3H/^14C] isotopes. The number of cells/well was then counted using a Coulter10 counter (Beckman). The inhibitory activity of the test compounds was then assessed by calculating the amount of product formed correcting for crossover between isotope counts, recovery, dilution and non-enzymatic degradation fmol/hr/million cells) with and without inhibitor (% inhibition).

[1] = Compound toxicity, MTS/Alamar Blue proliferation assay, PC-3; assay type: cell-based; settings: human, PC-3 (AR-) prostate cancer cells; PC3 (AR-); read-out: Cytotoxicity IC50 (µM) PC3 (AR-)
Method: (§1) AR+ (LNCaP) and AR- (PC-3) PCa cell lines were used as standard lines to determine the cytotoxicity of HSD3 inhibitor compounds. Toxicity was assessed over 96 h in 96 well plates using the standard MTS/Alamar Blue proliferation assay and over longer durations by cell counting methodologies.

[2] = Compound toxicity, MTS/Alamar Blue proliferation assay, LNCaP; assay type: cell-based; settings: human, LNCaP (AR+) prostate cancer cells; read-out: Cytotoxicity IC50 (µM) LNCaP (AR+)
Method: as §1

[3] = TLC assay, 293-EBNA[HSD3] cells, read-out: IC50 (17β-HSD3)

| Structure (SMILES) | IC50 (17β-HSD3; Table 11, read-out: HSD3 Activity (IC50 nM)) [nM] | IC50 at 96 h [1] [µM] | IC50 at 96 h [2] [µM] | 17β-HSD3 inhibitory activity in words (17β-HSD3) | inhibition at 10 µM (17β-HSD3; TLC assay) [%] | melting point [°C] | IC50 (17β-HSD3; [3]) [nM] |
| --- | --- | --- | --- | --- | --- | --- | --- |
| CC(=O)N1Cc2ccccc2CSc2ccccc21 [BMS Dibenzazocine] | 8.6 | > 50 | 19.4 |  |  |  |  |
| COc1cc(CNc2ccccc2Oc2ccc(Cl)cc2)c(NC(C)=O)cc1OC [Compound 5, N-(2-[2-(4-Chloro-phenoxy)-phenylamino]-methyl-4,5-dimethoxy-phenyl)-acetamide] |  |  |  | activity was lost; also recorded: inactive | < 20 | 117 to 118 |  |
| COc1cc(CNc2ccccc2Oc2ccc(Cl)cc2Cl)c(NC(C)=O)cc1OC [Compound 6, N-(2-([2-(2,4-Dichloro-phenoxy)-phenylamino]-methyl)-4,5-dimethoxy-phenyl)-acetamide] |  |  |  | activity was lost; also recorded: inactive | < 20 | 128 to 131 |  |
| CC(=O)Nc1c(CNc2ccccc2Oc2ccc(Cl)cc2)ccc2ccccc12 [Compound 7, N-(2-[2-(4-Chloro-phenoxy)-phenylamino]-methyl-naphthalen-1-yl)-acetamide] |  |  |  |  | < 20 | 153 to 155 |  |
| CC(=O)Nc1ccc(C)cc1CNc1ccccc1Oc1ccc(Cl)cc1 [Compound 8, N-(2-[2-(4-Chloro-phenoxy)-phenylamino]-methyl-4-methyl-phenyl)-acetamide] |  |  |  |  | 60 to 70 | 138 to 140 |  |
| CC(=O)Nc1ccc(Cl)cc1CNc1ccccc1Oc1ccc(Cl)cc1Cl [Compound 10, N-(4-Chloro-2-[2-(2,4-dichloro-phenoxy)-phenylamino]-methyl-phenyl)-acetamide] |  |  |  |  | < 20 | 135 to 137 |  |
| CC(=O)Nc1ccc(Cl)cc1CNc1ccccc1Oc1ccc(OC(F)(F)F)cc1 [Compound 11, N-(4-Chloro-2-[2-(4-trifluoromethoxy-phenoxy)-phenylamino]-methyl-phenyl)-acetamide] |  |  |  | good activity |  | 121 to 123 |  |
| CC(=O)Nc1ccc(CNc2ccccc2Oc2ccc(Cl)cc2)cc1 [Compound 18, N-(4-([2-(4-Chloro-phenoxy)-phenylamino]-methyl)-phenyl)-acetamide] |  |  |  |  | 29 | 137 to 139 |  |
| CC(=O)Nc1cccc(CNc2ccccc2Oc2ccc(Cl)cc2)c1 [Compound 20, N-(3-[2-(4-Chloro-phenoxy)-phenylamino]-methyl-phenyl)-acetamide] |  |  |  |  | 53 | 187 to 190 |  |
| CC(=O)Nc1ccccc1C(C)Nc1ccccc1Oc1ccc(Cl)cc1 (stereo not drawn) [Compound 29, N-(2-(1-[2-(4-Chloro-phenoxy)-phenylamino]-ethyl)-phenyl)-acetamide] |  | 18.3 | 14.6 |  |  |  | 76 |
| C=CC[C@H](Nc1ccccc1Oc1ccc(Cl)cc1)c1ccccc1NC(C)=O [Compound 32, S-(+)-N-(2-(1-[2-(4-Chloro-phenoxy)-phenylamino]-but-2-enyl)-phenyl)-acetamide] |  |  |  | active |  | 139 to 141 | 370 |
